The values that follow are results of earlier work, collected in patent US20230201369A1 (THE TEXAS A&M UNIVERSITY SYSTEM, priority 2020, published 2023).

Structures are written as SMILES.

For this data set the following is noted: estimated.

Turning to `C=CCN1CC[C@]23c4c5ccc(O)c4O[C@H]2C(=O)CC[C@@]3(O)[C@H]1C5` [naloxone, 17-Allyl-4,5α-epoxy-3,14-dihydroxymorphinan-6-one], the oral bioavailability is reported as 0.9-2%.
